Reference: patent publication US11634396B2 (priority 2021, dated 2023)

target: human mOR (Homo sapiens (Human), UniProt P35372); test: cell-based; details: not given
Sequence (P35372 whole entry): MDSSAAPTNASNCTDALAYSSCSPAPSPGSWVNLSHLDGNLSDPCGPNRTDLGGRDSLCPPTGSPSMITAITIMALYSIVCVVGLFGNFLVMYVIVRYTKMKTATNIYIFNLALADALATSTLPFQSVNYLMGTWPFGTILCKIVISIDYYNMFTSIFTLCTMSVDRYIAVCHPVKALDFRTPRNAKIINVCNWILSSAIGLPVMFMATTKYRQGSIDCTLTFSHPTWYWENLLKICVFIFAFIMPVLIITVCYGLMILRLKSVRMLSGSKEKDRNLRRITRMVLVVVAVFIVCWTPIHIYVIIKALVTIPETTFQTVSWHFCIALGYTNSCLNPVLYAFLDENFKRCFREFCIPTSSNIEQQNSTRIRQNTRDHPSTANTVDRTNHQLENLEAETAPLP

Compound | IC50 [nM]
Cc1cc([C@@H](CC(=O)NC[C@H](Cc2ccc(C(N)=O)c(F)c2)N(C)C)C2(C(F)(F)F)CC2)cs1 [Compound 52, 4-((S)-2-(dimethylamino)-3-((S)-3-(5-methylthiophen-3-yl)-3-(1-(trifluoromethyl)cyclopropyl)propanamido)propyl)-2-fluorobenzamide] | < 300
CN(C)[C@H](CNC(=O)C[C@H](c1cccnc1)C1(C(F)(F)F)CC1)Cc1ccc(O)c(F)c1 [Compound 290, (R)-N-((S)-2-(dimethylamino)-3-(3-fluoro-4-hydroxyphenyl)propyl)-3-(pyridin-3-yl)-3-(1-(trifluoromethyl)cyclopropyl)propanamide] | < 300
Cc1ncc([C@@H](CC(=O)NC[C@H](Cc2cc(F)c(C(N)=O)c(F)c2)N(C)C)C2(C(F)(F)F)CC2)cn1 [Compound 48, 4-((S)-2-(dimethylamino)-3-((R)-3-(2-methylpyrimidin-5-yl)-3-(1-(trifluoromethyl)cyclopropyl)propanamido)propyl)-2,6-difluorobenzamide] | > 3000
CC(C)[C@H](CC(=O)NC[C@H](Cc1ccc(O)cc1)N(C)C)c1cccnc1 [Compound 304, (S)-N-((S)-2-(dimethylamino)-3-(4-hydroxyphenyl)propyl)-4-methyl-3-(pyridin-3-yl)pentanamide] | < 300
Cc1ncc([C@@H](CC(=O)NC[C@H](Cc2ccc(C(N)=O)c(F)c2C)N(C)C)C2(C(F)(F)F)CC2)s1 [Compound 43, 4-((S)-2-(dimethylamino)-3-((S)-3-(2-methylthiazol-5-yl)-3-(1-(trifluoromethyl)cyclopropyl)propanamido)propyl)-2-fluoro-3-methylbenzamide] | < 300
Cc1cncc([C@H](CC(=O)NC[C@H](Cc2ccc3[nH]ncc3c2)N(C)C)C2(C(F)(F)F)CC2)c1 [Compound 203, (S)-N-((S)-2-(dimethylamino)-3-(1H-indazol-5-yl)propyl)-3-(5-methylpyridin-3-yl)-3-(1-(trifluoromethyl)cyclopropyl)propanamide] | 300 to 3000
CN(C)[C@H](CNC(=O)C[C@H](CC1CC1)c1cccnc1)Cc1ccc(O)c(Cl)c1 [Compound 286, (S)-N-((S)-3-(3-chloro-4-hydroxyphenyl)-2-(dimethylamino)propyl)-4-cyclopropyl-3-(pyridin-3-yl)butanamide] | < 300
CNC(=O)c1ccc(C[C@@H](CNC(=O)CC(c2cncc(OC)c2)C2(C(F)(F)F)CC2)N(C)C)c(Cl)c1 (stereo partly drawn) [Compound 117, 3-chloro-4-((2S)-2-(dimethylamino)-3-(3-(5-methoxypyridin-3-yl)-3-(1-(trifluoromethyl)cyclopropyl)propanamido)propyl)-N-methylbenzamide] | > 3000
CN(C)[C@H](CNC(=O)C[C@H](c1cccnc1)C1(C(F)(F)F)CC1)Cc1cc2cn[nH]c2cc1Cl [Compound 235, (R)-N-((S)-3-(6-chloro-1H-indazol-5-yl)-2-(dimethylamino)propyl)-3-(pyridin-3-yl)-3-(1-(trifluoromethyl)cyclopropyl)propanamide] | < 300
Cc1c(C[C@@H](CNC(=O)C[C@H](c2cccnc2)C2(C(F)(F)F)CC2)N(C)C)ccc2c1CC(=O)N2 [Compound 180, (R)-N-((S)-2-(dimethylamino)-3-(4-methyl-2-oxoindolin-5-yl)propyl)-3-(pyridin-3-yl)-3-(1-(trifluoromethyl)cyclopropyl)propanamide] | < 300
CNC(=O)c1ccc(C[C@@H](CNC(=O)C[C@@H](c2ccccn2)C2(C(F)(F)F)CC2)N(C)C)cc1F [Compound 153, 4-((S)-2-(dimethylamino)-3-((R)-3-(pyridin-2-yl)-3-(1-(trifluoromethyl)cyclopropyl)propanamido)propyl)-2-fluoro-N-methylbenzamide] | > 3000
Cc1cc(O)ccc1C[C@@H](CNC(=O)CC(c1cccnc1)C1(C(F)(F)F)CC1)N(C)C (stereo partly drawn) [Compound 272, N-((S)-2-(dimethylamino)-3-(4-hydroxy-2-methylphenyl)propyl)-3-(pyridin-3-yl)-3-(1-(trifluoromethyl)cyclopropyl)propanamide] | < 300
CN(C)[C@H](CNC(=O)C[C@H](c1ccncc1)C1CC1)Cc1ccc(O)c(F)c1Cl [Compound 258, (S)-N-((S)-3-(2-chloro-3-fluoro-4-hydroxyphenyl)-2-(dimethylamino)propyl)-3-cyclopropyl-3-(pyridin-4-yl)propanamide] | < 300
Cc1cc(O)ccc1C[C@@H](CNC(=O)C[C@H](c1ccoc1)C1(C(F)(F)F)CC1)N(C)C [Compound 265, (R)-N-((S)-2-(dimethylamino)-3-(4-hydroxy-2-methylphenyl)propyl)-3-(furan-3-yl)-3-(1-(trifluoromethyl)cyclopropyl)propanamide] | < 300
CNC(=O)c1ccc(C[C@@H](CNC(=O)CC(c2cccnc2)C2(C(F)(F)F)CC2)N(C)C)c(C)c1F (stereo in doubt) [Compound 124, 4-((S)-2-(dimethylamino)-3-((S)-3-(pyridin-3-yl)-3-(1-(trifluoromethyl)cyclopropyl)propanamido)propyl)-2-fluoro-N,3-dimethylbenzamide] | > 3000
CN(C)[C@H](CNC(=O)C[C@@H](c1ccncc1)C1(C(F)(F)F)CC1)Cc1ccc2[nH]ncc2c1 [Compound 208, (S)-N-((S)-2-(dimethylamino)-3-(1H-indazol-5-yl)propyl)-3-(pyridin-4-yl)-3-(1-(trifluoromethyl)cyclopropyl)propanamide] | < 300
Cc1cc([C@@H](CC(=O)NC[C@H](Cc2ccc(O)cc2)N(C)C)C2(C(F)(F)F)CC2)cs1 [Compound 322, (S)-N-((S)-2-(dimethylamino)-3-(4-hydroxyphenyl)propyl)-3-(5-methylthiophen-3-yl)-3-(1-(trifluoromethyl)cyclopropyl)propanamide] | < 300
CN(C)[C@H](CNC(=O)C[C@H](c1cccnc1)C1(C(F)(F)F)CC1)Cc1ccc(O)c(F)c1Cl [Compound 257, (R)-N-((S)-3-(2-chloro-3-fluoro-4-hydroxyphenyl)-2-(dimethylamino)propyl)-3-(pyridin-3-yl)-3-(1-(trifluoromethyl)cyclopropyl)propanamide] | < 300
CN(C)[C@H](CNC(=O)C[C@@H](CC1CC1)c1cncnc1)Cc1ccc(O)cc1 [Compound 307, (R)-4-cyclopropyl-N-((S)-2-(dimethylamino)-3-(4-hydroxyphenyl)propyl)-3-(pyrimidin-5-yl)butanamide] | < 300
Cc1cc(O)cc(C)c1C[C@@H](CNC(=O)CC(c1ncc(Cl)cn1)C1(C(F)(F)F)CC1)N(C)C (stereo partly drawn) [Compound 246, 3-(5-chloropyrimidin-2-yl)-N-((S)-2-(dimethylamino)-3-(4-hydroxy-2,6-dimethylphenyl)propyl)-3-(1-(trifluoromethyl)cyclopropyl)propanamide] | < 300
CNC(=O)c1ccc(C[C@@H](CNC(=O)C[C@H](c2ccc(C)nc2)C2(C(F)(F)F)CC2)N(C)C)c(Cl)c1 [Compound 113, 3-chloro-4-((S)-2-(dimethylamino)-3-((R)-3-(6-methylpyridin-3-yl)-3-(1-(trifluoromethyl)cyclopropyl)propanamido)propyl)-N-methylbenzamide] | < 300
CN(C)[C@H](CNC(=O)C[C@H](c1cccnc1)C1CC1)Cc1ccc(O)c(Cl)c1 [Compound 281, (S)-N-((S)-3-(3-chloro-4-hydroxyphenyl)-2-(dimethylamino)propyl)-3-cyclopropyl-3-(pyridin-3-yl)propanamide] | < 300
Cc1cc(O)cc(C)c1C[C@@H](CNC(=O)C[C@@H](c1cccnc1)C1(C(F)(F)F)CC1)N(C)C [Compound 243, (S)-N-((S)-2-(dimethylamino)-3-(4-hydroxy-2,6-dimethylphenyl)propyl)-3-(pyridin-3-yl)-3-(1-(trifluoromethyl)cyclopropyl)propanamide] | < 300
CN(C)[C@H](CNC(=O)C[C@H](c1cccnc1)C1(C(F)(F)F)CC1)Cc1ccc2cn[nH]c2c1 [Compound 232, (R)-N-((S)-2-(dimethylamino)-3-(1H-indazol-6-yl)propyl)-3-(pyridin-3-yl)-3-(1-(trifluoromethyl)cyclopropyl)propanamide] | 300 to 3000
Cc1ccc([C@@H](CC(=O)NC[C@H](Cc2ccc(C(N)=O)c(F)c2F)N(C)C)C2(C(F)(F)F)CC2)cn1 [Compound 4, 4-((S)-2-(dimethylamino)-3-((R)-3-(6-methylpyridin-3-yl)-3-(1-(trifluoromethyl)cyclopropyl)propanamido)propyl)-2,3-difluorobenzamide] | < 300

same assay, conditions: CHO Tag-lite human mOR stable cell line; forskolin 4 μM and DAMGO at EC90; read-out: mOR cAMP Antagonist Assay IC50

Compound | IC50 [nM]
CN(C)[C@H](CNC(=O)C[C@H](c1cncs1)C1CC1)Cc1ccc(O)cc1 [Compound 292, (S)-3-cyclopropyl-N-((S)-2-(dimethylamino)-3-(4-hydroxyphenyl)propyl)-3-(thiazol-5-yl)propanamide] | 300 to 3000
Cc1ncc([C@@H](CC(=O)NC[C@H](Cc2ccc(O)cc2)N(C)C)C2CC2)cn1 [Compound 311, (S)-3-cyclopropyl-N-((S)-2-(dimethylamino)-3-(4-hydroxyphenyl)propyl)-3-(2-methylpyrimidin-5-yl)propanamide] | 300 to 3000
CN(C)[C@H](CNC(=O)CC(c1ccncc1)C1(C(F)(F)F)CC1)Cc1ccc(C(N)=O)c(F)c1 (stereo partly drawn) [Compound 70, 4-[(2S)-2-(dimethylamino)-3-[3-(pyridin-4-yl)-3-[1-(trifluoromethyl)cyclopropyl]propanamido]propyl]-2-fluorobenzamide] | > 3000
CN(C)[C@H](CNC(=O)C[C@@H](c1cccnc1)C1(C(F)(F)F)CC1)Cc1ccc2[nH]c(=O)oc2c1 [Compound 176, (S)-N-((S)-2-(dimethylamino)-3-(2-oxo-2,3-dihydrobenzo[d]oxazol-6-yl)propyl)-3-(pyridin-3-yl)-3-(1-(trifluoromethyl)cyclopropyl)propanamide] | < 300

same assay, conditions: read-out: mOR cAMP Antagonist Assay IC50

IC50 [nM] | Compound
300 to 3000 | Cc1cnc([C@@H](CC(=O)NC[C@H](Cc2ccc(C(N)=O)c(F)c2)N(C)C)C2(C(F)(F)F)CC2)s1 [Compound 56, 4-((S)-2-(dimethylamino)-3-((S)-3-(5-methylthiazol-2-yl)-3-(1-(trifluoromethyl)cyclopropyl)propanamido)propyl)-2-fluorobenzamide]
